Data from patent publication US20040171658A1, “Carbohydrate derivatives” (priority 2001, published 2004).
Structures can show the parent of a compound that is named as a salt.

How the values were obtained:
TF/FVIIa = TF/FVIIa (Homo sapiens, UniProt P08709); experiment: TF/factor VIIa inhibition (TF/FVIIa-IC50); type: biochemical
Text: The inhibition of factor VIIa by the compounds according to the invention and the measurement of the anticoagulant and antithrombotic activity can be determined by conventional in-vitro or in-vivo methods. A conventional method for the measurement of the inhibition of factor VIIa is described, for example, by H. F. Ronning et al. in Thrombosis Research 1996, 84, 73-81.

FXa = FXa (Homo sapiens, UniProt P00742); experiment: Factor Xa inhibition (FXa-IC50); type: biochemical
Text: The inhibition of factor Xa by the compounds according to the invention and the measurement of the anticoagulant and antithrombotic activity can be determined by conventional in-vitro or in-vivo methods. A suitable method is described, for example, by J. Hauptmann et al. in Thrombosis and Haemostasis 1990, 63, 220-223.
The inhibition of factor Xa can be measured, for example, by the method of T. Hara et al. in Thromb. Haemostas. 1994, 71, 314-319.

Chain of TF/FVIIa (P08709 213-466 limits assumed): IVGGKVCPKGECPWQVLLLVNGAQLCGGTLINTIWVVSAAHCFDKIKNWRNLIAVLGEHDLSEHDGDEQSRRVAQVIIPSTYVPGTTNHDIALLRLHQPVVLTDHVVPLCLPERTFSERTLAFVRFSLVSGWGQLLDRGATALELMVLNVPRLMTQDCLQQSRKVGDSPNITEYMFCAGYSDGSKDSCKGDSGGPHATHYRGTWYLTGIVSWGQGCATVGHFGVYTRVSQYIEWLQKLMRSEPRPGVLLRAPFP
Chain of TF/FVIIa (P08709 61-212 partner limits assumed): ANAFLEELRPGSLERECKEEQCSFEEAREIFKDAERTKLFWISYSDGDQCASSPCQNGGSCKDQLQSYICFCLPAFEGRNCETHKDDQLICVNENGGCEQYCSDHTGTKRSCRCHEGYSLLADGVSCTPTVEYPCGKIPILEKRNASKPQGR
Chain of TF/FVIIa (P13726 33-295 partner): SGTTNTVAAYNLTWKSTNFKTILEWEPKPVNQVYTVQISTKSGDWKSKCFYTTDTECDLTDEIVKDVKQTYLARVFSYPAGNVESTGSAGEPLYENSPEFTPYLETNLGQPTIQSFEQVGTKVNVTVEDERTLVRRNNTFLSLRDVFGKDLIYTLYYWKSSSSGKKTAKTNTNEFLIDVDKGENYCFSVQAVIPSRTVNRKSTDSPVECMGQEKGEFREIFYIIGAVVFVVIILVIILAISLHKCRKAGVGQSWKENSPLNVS
Chain of FXa (P00742 235-488 limits assumed): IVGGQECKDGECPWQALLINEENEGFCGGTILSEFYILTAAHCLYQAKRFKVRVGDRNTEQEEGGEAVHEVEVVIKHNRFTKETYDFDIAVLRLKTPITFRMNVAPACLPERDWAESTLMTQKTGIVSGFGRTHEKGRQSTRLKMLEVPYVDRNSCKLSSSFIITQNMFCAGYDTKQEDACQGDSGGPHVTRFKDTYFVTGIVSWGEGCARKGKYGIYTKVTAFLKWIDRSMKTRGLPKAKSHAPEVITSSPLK
Chain of FXa (P00742 41-179 partner limits assumed): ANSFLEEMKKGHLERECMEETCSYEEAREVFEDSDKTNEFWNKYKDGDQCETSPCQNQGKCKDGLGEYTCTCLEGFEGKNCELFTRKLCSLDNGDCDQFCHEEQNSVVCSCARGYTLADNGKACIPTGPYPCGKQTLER

SMILES	melting point	IC50 (TF/FVIIa)	IC50 (FXa)
N=C(N)c1ccc(O[C@@H]2CO[C@H]3[C@@H]2OC[C@@H]3Oc2cccc(C(=N)N)c2)cc1 (as salt: trifluoroacetate) [Compound B1, 2-O-(3′-Amidinophenyl)-5-O-(4″-amidinophenyl)-1,4:3,6-dianhydro-D-sorbitol]	225 °C (dec.)	–	–
N=C(N)c1ccc(O[C@@H]2CO[C@H]3[C@@H]2OC[C@@H]3OCc2cccc(C(=N)N)c2)cc1 [Compound A2, 2-O-(3′-amidinobenzyl)-5-O-(4″-amidinophenyl)-1,4:3,6-dianhydro-D-sorbitol]	–	3.9 µM	2.1 µM
N=C(N)c1cccc(CO[C@H]2CO[C@H]3[C@@H]2OC[C@H]3Oc2cccc(C(=N)N)c2)c1 (as salt: trifluoroacetate) [Compound A1, 2-O-(3′-Amidinobenzyl)-5-O-(3″-amidinophenyl)-1,4:3,6-dianhydro-D-sorbitol]	155 °C	–	–
N=C(N)c1cccc(CO[C@H]2CO[C@H]3[C@@H]2OC[C@H]3Oc2cccc(C(=N)N)c2)c1 [Compound A1, 2-O-(3′-Amidinobenzyl)-5-O-(3″-amidinophenyl)-1,4:3,6-dianhydro-D-sorbitol]	–	–	7.9 µM
N=C(N)c1ccc(O[C@@H]2CO[C@H]3[C@@H]2OC[C@@H]3Oc2cccc(C(=N)N)c2)cc1 [Compound B1, 2-O-(3′-Amidinophenyl)-5-O-(4″-amidinophenyl)-1,4:3,6-dianhydro-D-sorbitol]	–	0.1 µM	0.15 µM
N=C(N)c1cccc(O[C@H]2CO[C@H]3[C@@H]2OC[C@H]3Oc2cccc(C(=N)N)c2)c1 [Compound B2, 2-O-(3′-amidinophenyl)-5-O-(3″-amidinophenyl)-1,4:3,6-dianhydro-D-sorbitol]	–	6 µM	3 µM
